One assay addresses T1, Glucocorticoid receptor (Homo sapiens, UniProt P04150).
T1 sequence (P04150 whole entry): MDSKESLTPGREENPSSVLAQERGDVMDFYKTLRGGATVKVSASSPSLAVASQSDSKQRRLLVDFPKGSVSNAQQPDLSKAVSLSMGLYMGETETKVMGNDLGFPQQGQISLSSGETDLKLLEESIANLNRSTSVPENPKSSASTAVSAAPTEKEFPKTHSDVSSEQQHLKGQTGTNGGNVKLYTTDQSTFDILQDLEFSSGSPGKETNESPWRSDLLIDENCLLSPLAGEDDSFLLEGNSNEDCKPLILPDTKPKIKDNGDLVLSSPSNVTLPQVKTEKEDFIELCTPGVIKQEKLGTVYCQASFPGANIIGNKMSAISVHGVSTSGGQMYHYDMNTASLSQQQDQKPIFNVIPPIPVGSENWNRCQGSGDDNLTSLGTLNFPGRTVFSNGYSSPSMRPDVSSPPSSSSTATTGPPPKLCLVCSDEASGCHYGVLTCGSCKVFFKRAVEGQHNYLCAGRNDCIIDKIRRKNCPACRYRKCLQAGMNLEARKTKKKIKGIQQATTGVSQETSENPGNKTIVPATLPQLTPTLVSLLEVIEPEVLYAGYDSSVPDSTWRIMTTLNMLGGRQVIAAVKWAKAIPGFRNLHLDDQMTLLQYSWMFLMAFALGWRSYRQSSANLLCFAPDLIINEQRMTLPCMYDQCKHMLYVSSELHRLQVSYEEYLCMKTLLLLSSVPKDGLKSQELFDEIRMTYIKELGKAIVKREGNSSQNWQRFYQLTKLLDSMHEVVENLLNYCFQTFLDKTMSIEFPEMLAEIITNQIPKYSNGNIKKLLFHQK

The target of another assay is Mu-type opioid receptor (Homo sapiens, UniProt P35372). Put plainly: biochemical. In kind it is functional.
Mu-type opioid receptor, sequence (P35372 whole entry): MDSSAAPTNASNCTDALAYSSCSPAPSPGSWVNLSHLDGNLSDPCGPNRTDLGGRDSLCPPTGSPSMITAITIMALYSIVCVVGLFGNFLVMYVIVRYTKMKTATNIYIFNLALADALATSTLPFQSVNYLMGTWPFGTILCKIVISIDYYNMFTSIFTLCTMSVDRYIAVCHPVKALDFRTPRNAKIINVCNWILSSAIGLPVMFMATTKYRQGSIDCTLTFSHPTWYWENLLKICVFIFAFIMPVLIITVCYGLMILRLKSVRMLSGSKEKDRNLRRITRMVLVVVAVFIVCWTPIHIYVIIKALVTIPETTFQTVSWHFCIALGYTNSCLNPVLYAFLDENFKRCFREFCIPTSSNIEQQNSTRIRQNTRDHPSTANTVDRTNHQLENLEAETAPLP
Assay [1] addresses Gamma-aminobutyric acid receptor subunit alpha-1/alpha-2/beta-2/gamma-2 (Homo sapiens, UniProt P14867+P18507+P47869+P47870). The format is functional, cell-based.
The target in assay [2] is Beta-3 adrenergic receptor (Homo sapiens, UniProt P13945).
Beta-3 adrenergic receptor, sequence (P13945 whole entry): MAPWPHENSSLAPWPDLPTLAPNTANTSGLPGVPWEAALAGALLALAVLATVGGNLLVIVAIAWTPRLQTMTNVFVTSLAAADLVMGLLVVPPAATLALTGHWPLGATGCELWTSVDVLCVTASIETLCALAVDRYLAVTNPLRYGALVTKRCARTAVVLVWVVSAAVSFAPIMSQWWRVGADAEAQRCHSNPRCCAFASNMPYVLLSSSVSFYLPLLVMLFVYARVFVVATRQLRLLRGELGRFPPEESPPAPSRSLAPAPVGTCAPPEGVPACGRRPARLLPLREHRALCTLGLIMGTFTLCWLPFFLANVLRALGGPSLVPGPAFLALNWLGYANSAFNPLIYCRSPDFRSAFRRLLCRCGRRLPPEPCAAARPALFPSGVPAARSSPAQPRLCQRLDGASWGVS
The target of another assay is T2, B1 bradykinin receptor (Homo sapiens, UniProt P46663).
T2 sequence (P46663 whole entry): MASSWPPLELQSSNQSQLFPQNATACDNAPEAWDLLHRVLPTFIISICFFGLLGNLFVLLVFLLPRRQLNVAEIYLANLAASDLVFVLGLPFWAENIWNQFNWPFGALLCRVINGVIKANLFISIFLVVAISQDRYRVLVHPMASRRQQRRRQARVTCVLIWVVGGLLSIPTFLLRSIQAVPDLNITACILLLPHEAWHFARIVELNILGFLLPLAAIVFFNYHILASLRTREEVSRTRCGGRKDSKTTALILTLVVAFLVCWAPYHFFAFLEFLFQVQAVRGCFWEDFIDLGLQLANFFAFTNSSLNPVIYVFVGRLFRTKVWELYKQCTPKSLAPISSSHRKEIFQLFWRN

The next assay concerns the target T3, Progesterone receptor (Homo sapiens, UniProt P06401).
T3 sequence (P06401 whole entry): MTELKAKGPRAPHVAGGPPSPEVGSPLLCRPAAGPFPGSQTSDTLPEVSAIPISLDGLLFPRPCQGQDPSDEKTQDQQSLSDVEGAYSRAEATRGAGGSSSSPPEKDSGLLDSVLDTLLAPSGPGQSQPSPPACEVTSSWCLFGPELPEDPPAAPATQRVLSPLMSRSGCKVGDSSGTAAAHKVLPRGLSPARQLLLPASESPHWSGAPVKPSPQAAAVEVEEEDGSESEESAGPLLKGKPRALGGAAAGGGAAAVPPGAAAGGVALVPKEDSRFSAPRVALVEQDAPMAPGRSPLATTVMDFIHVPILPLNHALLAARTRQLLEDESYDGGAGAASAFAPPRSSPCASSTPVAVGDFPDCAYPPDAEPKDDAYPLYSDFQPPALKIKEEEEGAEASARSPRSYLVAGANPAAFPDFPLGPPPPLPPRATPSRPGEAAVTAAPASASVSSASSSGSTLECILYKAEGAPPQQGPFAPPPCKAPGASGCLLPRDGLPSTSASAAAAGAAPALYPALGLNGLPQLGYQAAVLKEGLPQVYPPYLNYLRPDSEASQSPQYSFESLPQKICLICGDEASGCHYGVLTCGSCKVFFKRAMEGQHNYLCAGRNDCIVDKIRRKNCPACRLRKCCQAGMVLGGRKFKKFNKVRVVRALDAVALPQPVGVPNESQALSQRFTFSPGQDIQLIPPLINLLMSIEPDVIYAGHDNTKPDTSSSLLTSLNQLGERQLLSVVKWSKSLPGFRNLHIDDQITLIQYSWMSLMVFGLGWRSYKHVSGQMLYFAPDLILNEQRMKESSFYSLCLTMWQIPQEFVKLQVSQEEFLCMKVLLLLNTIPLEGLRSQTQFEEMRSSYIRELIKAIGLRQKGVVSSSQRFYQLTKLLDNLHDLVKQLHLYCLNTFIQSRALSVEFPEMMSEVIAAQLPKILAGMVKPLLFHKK

Assay [3] concerns the target T4, 5-hydroxytryptamine receptor 1A (Homo sapiens, UniProt P08908).
T4 sequence (P08908 whole entry): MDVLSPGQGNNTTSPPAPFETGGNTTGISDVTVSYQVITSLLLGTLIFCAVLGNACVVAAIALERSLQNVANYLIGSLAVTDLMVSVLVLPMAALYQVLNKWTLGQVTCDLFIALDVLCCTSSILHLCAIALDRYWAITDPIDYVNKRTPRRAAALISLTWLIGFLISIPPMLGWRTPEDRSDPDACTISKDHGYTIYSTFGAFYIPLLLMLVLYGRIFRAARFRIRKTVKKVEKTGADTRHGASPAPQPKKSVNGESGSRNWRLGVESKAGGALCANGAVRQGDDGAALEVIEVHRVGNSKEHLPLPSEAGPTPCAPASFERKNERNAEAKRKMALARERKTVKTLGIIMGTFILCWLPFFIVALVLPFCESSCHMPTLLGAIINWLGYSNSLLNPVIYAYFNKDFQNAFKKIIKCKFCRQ

Bounds are passed on as bounds.
Further: assay procedure not described here.

Gamma-aminobutyric acid receptor subunit alpha-1/alpha-2/beta-2/gamma-2, sequence (P14867 whole entry): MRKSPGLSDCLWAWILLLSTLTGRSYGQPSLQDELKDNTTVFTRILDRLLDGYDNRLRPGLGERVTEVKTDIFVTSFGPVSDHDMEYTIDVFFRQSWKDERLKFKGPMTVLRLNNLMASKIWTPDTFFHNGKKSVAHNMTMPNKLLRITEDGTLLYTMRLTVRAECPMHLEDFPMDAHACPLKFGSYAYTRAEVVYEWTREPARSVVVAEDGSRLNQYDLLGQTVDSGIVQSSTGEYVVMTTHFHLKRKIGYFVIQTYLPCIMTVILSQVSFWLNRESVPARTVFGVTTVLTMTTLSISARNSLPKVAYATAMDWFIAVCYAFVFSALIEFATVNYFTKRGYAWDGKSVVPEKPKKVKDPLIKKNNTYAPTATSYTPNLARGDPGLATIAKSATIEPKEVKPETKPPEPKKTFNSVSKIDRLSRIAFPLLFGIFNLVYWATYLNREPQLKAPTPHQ
Gamma-aminobutyric acid receptor subunit alpha-1/alpha-2/beta-2/gamma-2, sequence (P47870 whole entry): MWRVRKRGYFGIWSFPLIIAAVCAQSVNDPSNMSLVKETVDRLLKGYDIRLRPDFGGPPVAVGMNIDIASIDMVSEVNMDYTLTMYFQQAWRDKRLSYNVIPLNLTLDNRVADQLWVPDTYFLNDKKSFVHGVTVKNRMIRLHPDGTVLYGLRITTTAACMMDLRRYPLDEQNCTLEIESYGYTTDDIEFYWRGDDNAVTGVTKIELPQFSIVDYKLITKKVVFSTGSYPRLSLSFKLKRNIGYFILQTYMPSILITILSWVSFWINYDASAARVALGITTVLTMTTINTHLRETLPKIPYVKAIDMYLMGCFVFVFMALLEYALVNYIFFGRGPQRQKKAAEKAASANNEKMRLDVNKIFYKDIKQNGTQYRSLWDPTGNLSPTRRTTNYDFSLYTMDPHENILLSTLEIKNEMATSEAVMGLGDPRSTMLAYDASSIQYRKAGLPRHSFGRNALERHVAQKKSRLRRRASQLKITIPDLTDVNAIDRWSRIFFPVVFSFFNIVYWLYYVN
Gamma-aminobutyric acid receptor subunit alpha-1/alpha-2/beta-2/gamma-2, sequence (P18507 whole entry): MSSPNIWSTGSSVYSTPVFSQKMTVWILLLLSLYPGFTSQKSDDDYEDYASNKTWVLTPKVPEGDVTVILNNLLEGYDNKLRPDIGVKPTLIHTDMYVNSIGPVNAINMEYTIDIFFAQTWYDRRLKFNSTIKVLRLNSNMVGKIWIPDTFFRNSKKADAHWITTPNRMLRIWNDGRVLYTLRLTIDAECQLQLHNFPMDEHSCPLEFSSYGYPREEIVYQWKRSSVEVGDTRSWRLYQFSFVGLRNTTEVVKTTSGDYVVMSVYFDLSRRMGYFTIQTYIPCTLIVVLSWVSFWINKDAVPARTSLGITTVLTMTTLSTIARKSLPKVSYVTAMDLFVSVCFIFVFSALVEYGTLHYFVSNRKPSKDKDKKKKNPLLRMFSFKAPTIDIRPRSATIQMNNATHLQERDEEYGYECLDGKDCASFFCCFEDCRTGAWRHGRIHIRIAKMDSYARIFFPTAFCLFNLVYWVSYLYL
Gamma-aminobutyric acid receptor subunit alpha-1/alpha-2/beta-2/gamma-2, sequence (P47869 whole entry): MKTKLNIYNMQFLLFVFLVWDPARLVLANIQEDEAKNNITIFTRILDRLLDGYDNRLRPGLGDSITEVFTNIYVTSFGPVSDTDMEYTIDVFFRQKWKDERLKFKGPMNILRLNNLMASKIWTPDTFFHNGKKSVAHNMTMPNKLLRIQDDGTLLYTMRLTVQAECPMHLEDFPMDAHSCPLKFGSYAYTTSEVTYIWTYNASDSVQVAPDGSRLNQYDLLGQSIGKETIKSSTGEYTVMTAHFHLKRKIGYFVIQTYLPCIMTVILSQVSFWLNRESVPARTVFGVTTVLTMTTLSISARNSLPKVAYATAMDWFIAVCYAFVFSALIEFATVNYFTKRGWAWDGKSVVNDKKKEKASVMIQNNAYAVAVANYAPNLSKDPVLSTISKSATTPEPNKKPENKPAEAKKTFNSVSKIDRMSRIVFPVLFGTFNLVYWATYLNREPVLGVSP

What is called AC50 is the concentration at which the activity in the assay is half-maximal. A high value points to weaker potency. Regarding `COc1ccc(CC2c3cc(OC)c(OC)cc3CC[N+]2(C)CCC(=O)OCCCCCOC(=O)CC[N+]2(C)CCc3cc(OC)c(OC)cc3C2Cc2ccc(OC)c(OC)c2)cc1OC` (configuration not stated), the AC50 on Glucocorticoid receptor and on Mu-type opioid receptor was over 30 µM throughout.

`CCN1CCN(Cc2ccc(Nc3ncc(F)c(-c4cc(F)c5nc(C)n(C(C)C)c5c4)n3)nc2)CC1` [ABEMACICLIB] registered an AC50 in assay [1] of over 30 µM.

In the case of `COc1ccccc1Oc1c(NS(=O)(=O)c2ccc(C(C)(C)C)cc2)nc(-c2ncccn2)nc1OCCO` [BOSENTAN], the concentration at half-maximal activity (AC50) in assay [2] was over 30 µM; on B1 bradykinin receptor, over 30 µM; on Glucocorticoid receptor, over 30 µM; at Progesterone receptor, over 30 µM; in assay [3], over 10 µM.

For `COc1cc2nccc(Oc3ccc(NC(=O)C4(C(=O)Nc5ccc(F)cc5)CC4)cc3)c2cc1OC` [CABOZANTINIB], the concentration at half-maximal activity (AC50) in assay [1] is over 30 µM.

Take `CC(C(=O)O)c1ccc2c(c1)[nH]c1ccc(Cl)cc12` (configuration not stated) [CARPROFEN]: the AC50 at Glucocorticoid receptor was over 30 µM.

Turning to `COc1ccccc1OCCNCC(O)COc1cccc2[nH]c3ccccc3c12` (configuration not stated) [CARVEDILOL], the AC50 on B1 bradykinin receptor was over 30 µM; on Glucocorticoid receptor it was over 30 µM; on Mu-type opioid receptor, 5.2 µM; on Progesterone receptor, over 30 µM; in assay [3], 0.02 µM.

As to `O=C1CCc2cc(OCCCCc3nnnn3C3CCCCC3)ccc2N1` [CILOSTAZOL], the half-maximal activity concentration (AC50) at Glucocorticoid receptor was over 30 µM; at Mu-type opioid receptor, over 30 µM; at Progesterone receptor it was over 30 µM; in assay [3] it was over 10 µM.

Consider `O=C1CN(/N=C/c2ccc(-c3ccc([N+](=O)[O-])cc3)o2)C(O)=N1` [DANTROLENE], for which the half-maximal activity concentration (AC50) on Glucocorticoid receptor was over 10 µM; on Mu-type opioid receptor, over 30 µM.

As to `CN(C)CC[C@@H](c1ccc(Cl)cc1)c1ccccn1` [DEXCHLORPHENIRAMINE], the AC50 at Glucocorticoid receptor and on Mu-type opioid receptor was over 30 µM in each case.

Take `CC(C)N(CCC(C(N)=O)(c1ccccc1)c1ccccn1)C(C)C` (configuration not stated) [DISOPYRAMIDE]: the half-maximal activity concentration (AC50) was 8.37 µM in assay [2], over 30 µM at B1 bradykinin receptor, over 30 µM at Progesterone receptor and over 10 µM in assay [3].

Take `C[C@H]1c2cccc(O)c2C(=O)C2=C(O)[C@]3(O)C(=O)C(C(N)=O)=C(O)[C@@H](N(C)C)[C@@H]3[C@@H](O)[C@@H]21` [DOXYCYCLINE]: the concentration at half-maximal activity (AC50) is over 30 µM in assay [2], over 30 µM at B1 bradykinin receptor, over 30 µM on Progesterone receptor and over 10 µM in assay [3].

For the compound `C[C@]12C=CC(=O)N[C@@H]1CC[C@@H]1[C@@H]2CC[C@]2(C)[C@@H](C(=O)Nc3cc(C(F)(F)F)ccc3C(F)(F)F)CC[C@@H]12` [DUTASTERIDE], the AC50 is over 10 µM at Glucocorticoid receptor and over 30 µM at Mu-type opioid receptor.

As for `CN(C)CCC[C@@]1(c2ccc(F)cc2)OCc2cc(C#N)ccc21` [ESCITALOPRAM], the half-maximal activity concentration (AC50) (in assay [1]; on Glucocorticoid receptor) was over 30 µM throughout.

As to `C#C[C@]1(O)CC[C@H]2[C@@H]3CCC4=CC(=O)CC[C@@H]4[C@H]3C(=C)C[C@@]21CC` [ETONOGESTREL], the concentration at half-maximal activity (AC50) (in assay [1]; at Mu-type opioid receptor) was over 30 µM in each case.

`CC(C)Cc1ccc(C(C)C(=O)O)cc1` (configuration not stated) [IBUPROFEN]: the half-maximal activity concentration (AC50) in assay [2] is 7.12 µM; on B1 bradykinin receptor it was over 30 µM; on Glucocorticoid receptor, over 30 µM; at Progesterone receptor it was over 30 µM; in assay [3] it was over 10 µM.

As for `CC(=O)O[C@]1(C(C)=O)CC[C@H]2[C@@H]3C=C(C)C4=CC(=O)CC[C@@H]4[C@H]3CC[C@@]21C` [NOMEGESTROL ACETATE], the AC50 at Glucocorticoid receptor is 0.067 µM; on Mu-type opioid receptor it was over 30 µM.

For the compound `CN1C(C(=O)Nc2ccccn2)=C(O)c2ccccc2S1(=O)=O` [PIROXICAM], the AC50 was over 10 µM on Glucocorticoid receptor and over 30 µM on Mu-type opioid receptor.

Consider `C=C[C@H]1C[N@@]2CC[C@H]1C[C@@H]2[C@@H](O)c1ccnc2ccc(OC)cc12` [QUINIDINE], for which the figures for the concentration at half-maximal activity (AC50) (on Mu-type opioid receptor; at Progesterone receptor; in assay [3]) were over 30 µM, over 30 µM and over 10 µM, respectively.

In the case of `CO[C@H]1/C=C/O[C@@]2(C)Oc3c(C)c(O)c4c(O)c(c(/C=N/N5CCN(C)CC5)c(O)c4c3C2=O)NC(=O)/C(C)=C\C=C\[C@H](C)[C@H](O)[C@@H](C)[C@@H](O)[C@@H](C)[C@H](OC(C)=O)[C@@H]1C` [RIFAMPIN], the half-maximal activity concentration (AC50) was 32.6 µM in assay [2]; 14.2 µM on B1 bradykinin receptor; over 30 µM at Mu-type opioid receptor; over 30 µM at Progesterone receptor; over 10 µM in assay [3].

The compound `CC(N)C12CC3CC(CC(C3)C1)C2` (configuration not stated) [RIMANTADINE] registered a half-maximal activity concentration (AC50) on Glucocorticoid receptor of over 10 µM.

For `Nc1ccc(S(=O)(=O)Nc2nccs2)cc1` [SULFATHIAZOLE], the AC50 was over 30 µM in assay [2]; over 30 µM on B1 bradykinin receptor; over 30 µM on Glucocorticoid receptor; over 30 µM at Progesterone receptor; over 10 µM in assay [3].

Regarding `O=C1C(CC[S+]([O-])c2ccccc2)C(=O)N(c2ccccc2)N1c1ccccc1` (configuration not stated) [SULFINPYRAZONE], the concentration at half-maximal activity (AC50) on Glucocorticoid receptor was over 10 µM; on Mu-type opioid receptor, over 30 µM.

Turning to `CCN(CC)CCNC(=O)c1c(C)[nH]c(/C=C2\C(=O)Nc3ccc(F)cc32)c1C` [SUNITINIB], the figures for the half-maximal activity concentration (AC50) (at Glucocorticoid receptor; on Mu-type opioid receptor; in assay [3]) were over 30 µM, over 30 µM and 7.13 µM, respectively.

Regarding `COc1cc2nc(N3CCN(C(=O)C4CCCO4)CC3)nc(N)c2cc1OC` (configuration not stated) [TERAZOSIN], the half-maximal activity concentration (AC50) in assay [2] is over 30 µM; on B1 bradykinin receptor, over 30 µM; on Glucocorticoid receptor it was over 30 µM; at Mu-type opioid receptor it was over 30 µM; in assay [3] it was over 10 µM.

`CC(S)C(=O)NCC(=O)O` (configuration not stated) [TIOPRONIN] came in with a concentration at half-maximal activity (AC50) in assay [1] of over 30 µM.

`C[C@H](CCC(=O)O)[C@H]1CC[C@H]2[C@@H]3[C@@H](O)C[C@@H]4C[C@H](O)CC[C@]4(C)[C@H]3CC[C@]12C` [URSODIOL] gave a concentration at half-maximal activity (AC50) in assay [1] of over 30 µM.

On to `Cc1onc(-c2ccccc2)c1-c1ccc(S(N)(=O)=O)cc1` [VALDECOXIB], for which the AC50 in assay [2] is over 30 µM; on B1 bradykinin receptor it was over 30 µM; at Glucocorticoid receptor, over 30 µM; on Progesterone receptor, over 30 µM; in assay [3], over 10 µM.

With `CCCC(CCC)C(=O)O` [VALPROIC ACID], the AC50 in assay [2] was over 30 µM; on B1 bradykinin receptor, over 30 µM; on Glucocorticoid receptor it was over 30 µM; at Progesterone receptor, over 30 µM; in assay [3], over 10 µM.
